Experiments:
Assay type in all cases: in vivo, Lateolabrax maculatus
spotted seabass [1] = experiment: Energy metabolism indexes (glucose, lactic acid); conditions: P<0.05
Procedure: (§1) In accordance with the principles and guiding regulations established by the Animal Protection and Utilization Committee of Shanghai Ocean University (SHOU-DW-2022-059), 200 mg/L MS-222 was used to anesthetize fish. Venous-arterial blood samples were obtained from the caudal vein using a 1 mL syringe with 10% EDTA as an anticoagulant and then preserved in anticoagulation tubes. In addition, another portion of the blood was collected without anticoagulant, then kept at 4° C. for a duration of 12 hours for stationary. The coagulated blood was centrifuged at 4000×g for 20 min at 4° C. The serum was extracted and placed in the refrigerator at −40° C. for testing.
(§2) Acid phosphatase (ACP), glucose (GLU) and lactic acid (LD) kits (Nanjing Jiancheng Bioengineering Institute, Nanjing, China) were used to measure ACP, GLU and LD levels.

[2] = tested on: spotted seabass gill tissue; experiment: Gill tissue histopathology by light microscope after anesthesia
Procedure: • 1. Healthy spotted seabass with uniform sizes and uniform respiration rates were selected and acclimated for 24 h. During the acclimatization period, the water temperature was 22±1° C., the salinity was 16%, the dissolved oxygen was 6 mg/L, pH was 7.5, and the fish-water ratio was 1:50. The metabolic wastes of the spotted seabass were discharged during acclimatization period. • 2. The emulsified Cinnamomum camphora essential oils were added to the aquariums respectively. The water temperature was controlled at 22±1° C. The concentrations of the emulsified Cinnamomum camphora essential oil were 10, 20, 30, 50, 100, 150, 200 mg/L, respectively, and the same concentrations of MS-222 anesthesia solution and linalool solution were prepared at the same time. • 3. The spotted seabass were transferred to aquariums (5 fish per aquarium) with different concentrations of the Cinnamomum camphora essential oil, MS-222 and linalool anesthetics, and anesthetic concentrations, sedation concentrations and duration of anesthesia were recorded for the spotted seabass. • 4. The fish were extracted once deep anesthesia was achieved. Recovery was defined as the restoration of fish to their typical swimming behavior; the resuscitation time of the spotted seabass were recorded. • 5. The optimal concentration range was obtained, and oxidative stress and tissue injury were measured. […]

spotted seabass [3] = experiment: Blood biochemical analysis (RBC, HCT, HGB); conditions: after deep anesthesia; comparison between anesthetic groups, p<0.05
Procedure: as §1
Red blood cell count (RBC), haematocrit (HCT), and hemoglobin (HGB) in blood samples were measured in a Myriad Veterinary Automatic Blood Cell Analyser (BC-2800vet, Shenzhen, China).

spotted seabass [4] = experiment: Sedation, anesthesia induction and resuscitation time of spotted seabass in anesthetic bath; set-up: key to Stage IV (deep anesthesia) time / Resuscitation time / Stage I (light sedation) time / Stage II (deep sedation) time / Stage III (light anesthesia) time: —: No anesthetic effect
Procedure: • 1. Healthy spotted seabass with uniform sizes and uniform respiration rates were selected and acclimated for 24 h. During the acclimatization period, the water temperature was 22±1° C., the salinity was 16%, the dissolved oxygen was 6 mg/L, pH was 7.5, and the fish-water ratio was 1:50. The metabolic wastes of the spotted seabass were discharged during acclimatization period. • 2. The emulsified Cinnamomum camphora essential oils were added to the aquariums respectively. The water temperature was controlled at 22±1° C. […] The spotted seabass were transferred to aquariums (5 fish per aquarium) with different concentrations of the Cinnamomum camphora essential oil, MS-222 and linalool anesthetics, and anesthetic concentrations, sedation concentrations and duration of anesthesia were recorded for the spotted seabass. • 4. The fish were extracted once deep anesthesia was achieved. Recovery was defined as the restoration of fish to their typical swimming behavior; the resuscitation time of the spotted seabass were recorded. • 5. The optimal concentration range was obtained, and oxidative stress and tissue injury were measured. [table] One-way analysis of variance (ANOVA) was used to evaluate the data (anesthetic induction and recovery time) using SPSS 26.0 software (SPSS Inc., Chicago, IL, USA). The significant variation was determined using Duncan's multiple range test (P<0.05). Graphs were created using Origin software.

spotted seabass [5] = experiment: Immunological indicators (ACP/AKP, IgM, LZM) in serum
Procedure: as §1, §2
Lysozyme (LZM) activity was determined by the method of De Souza et al. Serum immunoglobulin M (IgM) concentration was measured using a fish ELISA kit (Nanjing Jiancheng Bioengineering Institute, Nanjing, China).

spotted seabass [6] = experiment: Oxidative stress indicators (SOD, CAT, GSH-Px) in blood
Procedure: as §1
Superoxide Dismutase (SOD), Catalase (CAT) and Glutathione Peroxidase (GSH-Px) kits (Nanjing Jiancheng Bioengineering Institute, Nanjing, China) were used to determine SOD, CAT and GSH-Px activities in blood.

[7] = after 24 h of recovery, vs MS-222 and Cinnamomum camphora essential oil
[8] = 100 mg/L in water, listed as linalool
[9] = after 24 h of recovery, vs initial

Structure (SMILES): C=CC(C)(O)CCC=C(C)C (centres unmarked) [Linalool, 1,6-Octadien-3-ol,3,7-dimethyl]
- Glucose concentration (spotted seabass [1]; [7]): higher
- Lactic acid concentration (spotted seabass [1]; [7]): lower
- Glucose concentration (spotted seabass [1]; after anesthesia, comparison between anesthetic groups): Greater
- Lactic acid level (spotted seabass [1]; after anesthesia, vs MS-222 and Cinnamomum camphora essential oil): greater
- Gill tissue histopathological changes [2]: swollen lamellar epithelium
- Percentage of hematocrit (spotted seabass [3]): lower
- Resuscitation time (spotted seabass [4]; 5 mg/L in water): —
- Stage I (light sedation) time (spotted seabass [4]; 5 mg/L in water): —
- Stage II (deep sedation) time (spotted seabass [4]; 5 mg/L in water): —
- Stage III (light anesthesia) time (spotted seabass [4]; 5 mg/L in water): —
- Stage IV (deep anesthesia) time (spotted seabass [4]; 5 mg/L in water): —
- Resuscitation time (spotted seabass [4]; 10 mg/L in water): —
- Stage I (light sedation) time (spotted seabass [4]; 10 mg/L in water): 88.67 ± 3.21 s
- Stage II (deep sedation) time (spotted seabass [4]; 10 mg/L in water): —
- Stage III (light anesthesia) time (spotted seabass [4]; 10 mg/L in water): —
- Stage IV (deep anesthesia) time (spotted seabass [4]; 10 mg/L in water): —
- Resuscitation time (spotted seabass [4]; 20 mg/L in water): —
- Stage I (light sedation) time (spotted seabass [4]; 20 mg/L in water): 70.00 ± 3.00 s
- Stage II (deep sedation) time (spotted seabass [4]; 20 mg/L in water): 97.00 ± 4.58 s
- Stage III (light anesthesia) time (spotted seabass [4]; 20 mg/L in water): —
- Stage IV (deep anesthesia) time (spotted seabass [4]; 20 mg/L in water): —
- Resuscitation time (spotted seabass [4]; 30 mg/L in water): —
- Stage I (light sedation) time (spotted seabass [4]; 30 mg/L in water): 60.00 ± 3.00 s
- Stage II (deep sedation) time (spotted seabass [4]; 30 mg/L in water): 84.67 ± 3.51 s
- Stage III (light anesthesia) time (spotted seabass [4]; 30 mg/L in water): 103.33 ± 3.51 s
- Stage IV (deep anesthesia) time (spotted seabass [4]; 30 mg/L in water): —
- Resuscitation time (spotted seabass [4]; 50 mg/L in water): 235.00 ± 2.00 s
- Stage I (light sedation) time (spotted seabass [4]; 50 mg/L in water): 42.67 ± 3.51 s
- Stage III (light anesthesia) time (spotted seabass [4]; 50 mg/L in water): 115.00 ± 4.00 s
- Stage IV (deep anesthesia) time (spotted seabass [4]; 50 mg/L in water): 323.33 ± 2.52 s
- Resuscitation time (spotted seabass [4]; 100 mg/L in water): 255.33 ± 2.08 s
- Stage I (light sedation) time (spotted seabass [4]; 100 mg/L in water): 31.67 ± 1.15 s
- Stage III (light anesthesia) time (spotted seabass [4]; 100 mg/L in water): 103.67 ± 2.52 s
- Stage IV (deep anesthesia) time (spotted seabass [4]; 100 mg/L in water): 213.00 ± 1.73 s
- Resuscitation time (spotted seabass [4]; [8]): 344.00 s
- Stage IV (deep anesthesia) time (spotted seabass [4]; [8]): 155.33 s
- Resuscitation time (spotted seabass [4]; 150 mg/L in water): 270.00 ± 3.00 s
- Stage I (light sedation) time (spotted seabass [4]; 150 mg/L in water): 22.33 ± 2.52 s
- Stage II (deep sedation) time (spotted seabass [4]; 150 mg/L in water): 44.00 ± 2.65 s
- Stage III (light anesthesia) time (spotted seabass [4]; 150 mg/L in water): 91.67 ± 1.53 s
- Stage IV (deep anesthesia) time (spotted seabass [4]; 150 mg/L in water): 155.33 ± 3.51 s
- Resuscitation time (spotted seabass [4]; 200 mg/L in water): 310.00 ± 3.00 s
- Stage I (light sedation) time (spotted seabass [4]; 200 mg/L in water): 16.00 ± 1.00 s
- Stage II (deep sedation) time (spotted seabass [4]; 200 mg/L in water): 37.00 ± 1.73 s
- Stage III (light anesthesia) time (spotted seabass [4]; 200 mg/L in water): 86.00 ± 2.65 s
- Stage IV (deep anesthesia) time (spotted seabass [4]; 200 mg/L in water): 141.00 ± 5.29 s
- Optimal anesthetic concentration (spotted seabass [4]; criterion: induction in around 3 min and recovery within 5 min): 100 mg/L
- Concentration showing deep sedation (spotted seabass [4]; in vivo): 20 mg/L
- Concentration showing light anesthesia effect (Stage III) (spotted seabass [4]; in vivo): 30 mg/L
- Concentration showing light sedation effect (Stage I) (spotted seabass [4]; in vivo): 10 mg/L
- Minimum concentration required to achieve profound anesthesia (Stage IV) (spotted seabass [4]; in vivo, iv): 50 mg/L
- IgM concentration (spotted seabass [5]; after anesthesia): decreased
- LZM activity (spotted seabass [5]; after anesthesia, change from initial): increased
- LZM activity (spotted seabass [5]; after anesthesia, comparison between anesthetic groups, P<0.05): higher
- ACP activity (spotted seabass [5]; after anesthesia, vs MS-222 and Cinnamomum camphora essential oil, P<0.05): higher
- AKP activity (spotted seabass [5]; on exposure to anesthetic): increased
- GSH-Px activity (spotted seabass [6]; [9]): still higher than the initial levels
- SOD activity (spotted seabass [6]; [9]): still higher than the initial levels
- SOD, CAT and GSH-Px activities (spotted seabass [6]; after anesthesia): increasing trend
